Values joined by “and” are separate entries in the source; they are usually repeats but may differ in a detail not shown here. Equal entries are not always repeated.
What was measured:
MCF-7 estrogen receptor = biological target: T1, MCF-7 estrogen receptor (Homo sapiens, UniProt P03372); assay: Competitive binding assay, Relative Binding Affinities on binding of estradiol to MCF-7 estrogen receptor
T1 construct: estrogen receptor extracted from MCF-7 human breast tumor cells; endogenous in cells; host or cells: MCF-7 human breast cancer cells (nuclear extract, cytosol or whole cell extract)
T1 sequence (P03372 1-595): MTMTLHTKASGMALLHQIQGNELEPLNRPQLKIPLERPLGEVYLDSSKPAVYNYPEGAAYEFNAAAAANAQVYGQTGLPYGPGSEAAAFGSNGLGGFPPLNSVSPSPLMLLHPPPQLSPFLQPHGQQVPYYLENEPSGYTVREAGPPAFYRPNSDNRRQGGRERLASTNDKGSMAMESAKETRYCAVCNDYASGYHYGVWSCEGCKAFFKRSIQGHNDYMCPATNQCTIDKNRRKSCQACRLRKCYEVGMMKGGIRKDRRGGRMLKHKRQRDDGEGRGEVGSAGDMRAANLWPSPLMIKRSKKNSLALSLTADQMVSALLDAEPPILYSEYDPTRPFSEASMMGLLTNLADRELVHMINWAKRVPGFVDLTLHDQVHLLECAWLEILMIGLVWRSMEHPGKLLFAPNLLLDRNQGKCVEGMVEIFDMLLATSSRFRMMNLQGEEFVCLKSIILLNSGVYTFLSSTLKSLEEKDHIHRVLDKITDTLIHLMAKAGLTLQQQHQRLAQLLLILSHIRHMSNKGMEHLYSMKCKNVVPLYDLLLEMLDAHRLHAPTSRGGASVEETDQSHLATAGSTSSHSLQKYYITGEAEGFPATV
Procedure: Briefly, RBAs are determined from competitive binding assays with several concentrations of estradiol (E2) with and without test compound. After 16-18 hours of incubation at 4 degrees C., unbound [^3 H] E2 is separated from ER-bound [^3 H] E2. The IC50 is determined and the RBA is calculated as: […]

estrogen receptors = biological target: T2, estrogen receptors (Homo sapiens, UniProt P03372); assay: Quantification of estrogen receptors in nuclear and whole cell extracts (ER-EIA monoclonal kit), Table 1; assay type: cell-based, human (MCF-7 human breast cancer cells); details: estrogen receptors in nuclear extracts
T2 construct: estrogen receptor extracted from MCF-7 human breast tumor cells; endogenous in cells; host or cells: MCF-7 human breast cancer cells (nuclear extract, cytosol or whole cell extract)
T2 sequence (P03372 1-595): T1 sequence (P03372 1-595)
Procedure: (§1) Monolayers of MCF-7 human breast cancer cells are rinsed once with HBSS and scraped off culture dishes into 15 ml conical tubes with 5 ml HBSS. The cells are sedimented by centrifugation at 250×g for five minutes, suspended in 1 ml HBSS and sedimented by centrifugation at 2000 rpm in a tabletop centrifuge for five minutes in a 1.5 ml microfuge tube. Two PCV of a solution of a lysis buffer (25 mM HEPES, pH 7.8, 50 mM KCl, 0.5% Nonidet P 40, 2 mM dithiothreitol, 0.2 mM phenylmethylsulfonyl fluoride, 0.05 mg/ml leupeptin, 0.05 mg/ml aprotinin, 0.0025 mg/ml pepstatin, 0.005 mg/ml antipain) are added and cells are kept on ice for 15 minutes. Lysed cells are centrifuged for 3 minutes at 10,000×g, supernatant decanted, and kept as the cytosol fraction. Pellets are suspended in two PCV of extraction buffer (25 mM HEPES, pH 7.8, 500 mM KCl, 10% glycerol, 2 mM dithiothreitol and the above protease inhibitors), mixed for 20 minutes by inversion at 4 degrees C. and centrifuged at 10,000×g for 20 minutes. The supernatant is decanted and saved as nuclear extract. Both the nuclear extract and the cytosol are dialyzed for two hours against dialysis buffer (25 mM HEPES, pH 7.8, 50 mM KCl, 10% glycerol, 2 mM dithiothreitol and the above protease inhibitors). Nuclear and cytosol fractions are stored frozen at -80 degrees C. until used for mobility shift assays or determination of estrogen receptor content.
Whole cell extracts of tumor cells are prepared by the method of Reese and Katzenellenbogen, Nuc. Acids Res., 19: 6595-6602 (1991), with some modifications. Cell monolayers are rinsed once with HBSS, then scraped into HBSS and sedimented by centrifugation (5 min., 250×g). After resuspending in 1 mL HBSS, the cells are again sedimented at 250×g for 5 min at 4° C. The cell pellet is resuspended in lysis/extract buffer containing 20 mM Tris, pH 7.5, 10% glycerol (v/v), 0.5M sodium chloride and 0.5% NP-40 (v/v) and incubated on ice for 25 minutes, then the supernatants are dialyzed against 25 mM HEPES, pH 7.8, 10% glycerol (v/v), 0.5 mM dithiothreitol and 50 mM potassium chloride for 2 hours at 4° C. Both the lysis/extraction and the dialysis buffers contain protease inhibitors which included 0.5 mM phenylmethylsulfonylfluoride, 0.05 mg/mL leupeptin, 0.05 mg/mL aprotinin, 0.00-25 mg/mL pepstatin, and 0.005 mg/mL antipain. Dialyzed whole cell extracts are stored in aliquots at -80° C. until used.
The protein concentration for nucleus and cytosol fractions are determined with a BIO-RAD kit, according to the manufacturer's instructions.
Estrogen receptor levels in nuclear and whole cell extracts of tumor cells were quanitated using the ER-EIA monoclonal kit manufactured by Abbott Laboratories (Diagnostic Division) according to the kit instructions.
receptors in nuclear extracts.
.dagger.WCE refers to IC50 value for estrogen receptors in whole cel
A slash dividing two numbers indicates the results of two separate

estrogen receptor mRNA = assay: Reduction of estrogen receptor mRNA levels in treated MCF-7 human breast tumor cells; assay type: cell-based;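 on Estrogen Receptor mRNA band intensity: Phosphoimager intensity of radioactive mRNA bands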
Procedure: (§2) After treatment with 30 μM drug for 24 hr, total RNA is isolated according to the guanidinium isothiocyanate method using an RNA preparation kit from 5 Prime-3 Prime, Inc., following the manufacturer's instructions. The RNA is separated by formaldehyde gel electrophoresis and transferred to a nylon membrane.

GAPDH mRNA = GAPDH mRNA levels in treated MCF-7 human breast tumor cells (positive control probe); assay type: cell-based; details: 30 μM, 24 hr;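 further: Phosphoimager intensity of radioactive mRNA bands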
Procedure: as §2

[1] = biological target: T3, estrogen receptor binding to an estrogen response element (Homo sapiens, UniProt P03372); assay: Inhibition of estrogen receptor binding to an estrogen response element in DNA mobility shift assays; assay type: biochemical, human (nuclear extract of MCF-7 human breast cancer cells)
T3 construct: estrogen receptor extracted from MCF-7 human breast tumor cells; endogenous in cells; host or cells: MCF-7 human breast cancer cells (nuclear extract, cytosol or whole cell extract)
T3 sequence (P03372 1-595): T1 sequence (P03372 1-595)
Procedure: as §1
Briefly, to each reaction tube was added 0.01 mg nuclear extract, 2 μg poly dIdC, 50 mM NaCl, 1 mM dithiothreitol and 10 mM Tris, pH 7.5 in a total volume of 0.01 ml and the mixture was kept at room temperature for 10 minutes. A ^32 P-labelled estrogen response element [ERE]

[2] = system: hormone-dependent breast cancer; details: cited from earlier work
mouse estrogen receptor = details: Fawell, S. E., et al. (1990); cited from earlier work
[3] = system: MCF-7 human breast tumor cells; assay: Clonigenic assay for MCF-7 human breast tumor cells; assay type: cell-based; details: for Colonies ± S.D.: 24 hours treatment, grown 22 days
Procedure: MCF-7 cells (10^7) are added to 100 mm tissue culture dishes, allowed to adhere for 24 hours and then treated with either MDL 101,906 or ICI 164,384 for 24 hours. The cells are removed from the dishes with trypsin/EDTA, and washed twice by centrifugation. The cells were counted and 500 cells from each treatment group are added to triplicate wells of 6-well culture dishes. The cells are grown for 22 days. Colonies 1 mm diameter or greater are counted.

[4] = read-out: integrated volume of shifted ERE oligo as percentage of control, given as % inhibition

Q: Which results are given for CCCCN(C)C(=O)CCCCCCCNC(=O)Cc1c(-c2ccc(O)cc2)n(Cc2ccccc2)c2ccc(O)cc12 [MDL 103,324, 8-[[5-Hydroxy-1-benzyl-2-[(4-hydroxy)-phenyl]-1H-indol-3-yl]-acetylamino]-octanoic acid methyl-butyl-amide]?
A: inhibition of estradiol binding to MCF-7 ER (MCF-7 estrogen receptor; doses of 100 or 200 nM): did not significantly inhibit; inhibition of estradiol binding to MCF-7 ER (MCF-7 estrogen receptor; typically, at doses of 100 or 200 nM): less than 10%; IC50 (estrogen receptors): 18 µM; ER/GAPDH mean (estrogen receptor mRNA; 30 μM, 24 hr, mean of replicates 1 and 2): 0.74; ER/GAPDH (estrogen receptor mRNA; 30 μM, 24 hr, replicate 1): 0.61; Estrogen Receptor mRNA band intensity (estrogen receptor mRNA; 30 μM, 24 hr, replicate 1): 5,128; ER/GAPDH (estrogen receptor mRNA; 30 μM, 24 hr, replicate 2): 0.87; Estrogen Receptor mRNA band intensity (estrogen receptor mRNA; 30 μM, 24 hr, replicate 2): 7,077; activity at 30 µM (estrogen receptor mRNA; Homo sapiens, MCF7, 24 h, read-out: ER/GAPDH % Control): 20%; GAPDH mRNA band intensity (GAPDH mRNA; replicate 1): 8,300; GAPDH mRNA band intensity (GAPDH mRNA; replicate 2): 8,118; IC50 [1]: 8.5 µM and 18 µM; inhibition at 2 µM [1, 4]: 60%; inhibition at 5 µM [1, 4]: 68%; inhibition at 10 µM [1, 4]: 58%; inhibition at 20 µM [1, 4]: 46%; inhibition at 30 µM [1, 4]: 50%

Q: For CC/C(=C(\c1ccccc1)c1ccc(OCCN(C)C)cc1)c1ccccc1 [tamoxifen], which “patients who do not respond to tamoxifen treatment despite presence of ERs in the malignant tissue” value ([2]; Maass, H., et al., Cancer, 46:2783 (1980)) is on record?
A: About 40%

Q: What about the “toxicological problems associated with tamoxifen treatment” value ([2]; in vivo) of the same molecule?
A: tumor flares, vaginal cornification and hypercalciemia

Q: What does the source list for CCCCN(C)C(=O)CCCCCCCCCC[C@@H]1Cc2cc(O)ccc2[C@H]2CC[C@]3(C)[C@@H](O)CC[C@H]3[C@H]12 [ICI 164,384, 11-(3-17β-dihydroxyoestra-1,3,-5(10)-trien-7α-yl)-N-n-butyl-N-methylundecanamide, reference compound]?
A: inhibition of DNA binding of the mouse estrogen receptor (mouse estrogen receptor): inhibit DNA binding of the mouse estrogen receptor by interfering with receptor dimerization; Colonies ± S.D. ([3]; 0.1 μM): 48 ± 6; Colonies ± S.D. ([3]; 1.0 μM): 40 ± 2; activity at 0.1 µM ([3]; Homo sapiens, MCF7, 528 h, 0.1 μM, read-out: Colonies, % Control): 145%; activity at 1 µM ([3]; Homo sapiens, MCF7, 528 h, 1.0 μM, read-out: Colonies, % Control): 121%
